Test results published in the NIST ThermoML archive (doi:10.1016/j.jct.2004.07.031).
Several values for one entry are separate records, joined by “and”; a condition that tells them apart may be missing. Equal entries are not always repeated.

Test: molar heat capacity at constant pressure
Settings: 101.33 kPa, Crystal, PPMS instrument (Quantum Design)

O=P([O-])([O-])[O-].[La+3] [lanthanum orthophosphate]
Settings | molar heat capacity at constant pressure
9.994 K | 0.1666 J/K/mol
10 K | 0.1669 J/K/mol
10.01 K | 0.1671 J/K/mol
10.19 K | 0.1769 J/K/mol
10.2 K | 0.1776 J/K/mol and 0.1771 J/K/mol
10.21 K | 0.1778 J/K/mol
11.18 K | 0.2376 J/K/mol
12.19 K | 0.3139 J/K/mol
13.19 K | 0.4068 J/K/mol
14.19 K | 0.5187 J/K/mol
15.2 K | 0.6528 J/K/mol
16.21 K | 0.8094 J/K/mol
17.22 K | 0.9882 J/K/mol
18.24 K | 1.192 J/K/mol
19.25 K | 1.422 J/K/mol
20.24 K | 1.669 J/K/mol
21.28 K | 1.955 J/K/mol
22.27 K | 2.25 J/K/mol
23.28 K | 2.587 J/K/mol
24.29 K | 2.937 J/K/mol
25.31 K | 3.319 J/K/mol
26.33 K | 3.721 J/K/mol
27.36 K | 4.152 J/K/mol
28.34 K | 4.576 J/K/mol
29.38 K | 5.046 J/K/mol
30.37 K | 5.505 J/K/mol
31.4 K | 6.006 J/K/mol
32.4 K | 6.51 J/K/mol
33.41 K | 7.04 J/K/mol
34.43 K | 7.567 J/K/mol
35.43 K | 8.121 J/K/mol
36.45 K | 8.686 J/K/mol
37.45 K | 9.258 J/K/mol
38.41 K | 9.809 J/K/mol
38.46 K | 9.827 J/K/mol
39.48 K | 10.43 J/K/mol
40.48 K | 11.02 J/K/mol
40.49 K | 11.03 J/K/mol
42.49 K | 12.25 J/K/mol
44.51 K | 13.49 J/K/mol
46.53 K | 14.76 J/K/mol
48.55 K | 16.05 J/K/mol
50.57 K | 17.36 J/K/mol
52.59 K | 18.66 J/K/mol
54.6 K | 19.95 J/K/mol
56.62 K | 21.25 J/K/mol
58.64 K | 22.56 J/K/mol
60.66 K | 23.86 J/K/mol
62.68 K | 25.14 J/K/mol
64.7 K | 26.41 J/K/mol
66.72 K | 27.64 J/K/mol
68.74 K | 28.87 J/K/mol
70.74 K | 30.08 J/K/mol
72.76 K | 31.29 J/K/mol
74.78 K | 32.47 J/K/mol
75.85 K | 33.08 J/K/mol
76.8 K | 33.62 J/K/mol
78.81 K | 34.78 J/K/mol
80.81 K | 35.87 J/K/mol
80.84 K | 35.88 J/K/mol
85.86 K | 38.64 J/K/mol
90.91 K | 41.31 J/K/mol
95.96 K | 43.8 J/K/mol
101 K | 46.3 J/K/mol
106 K | 48.66 J/K/mol
111.1 K | 50.92 J/K/mol
116.1 K | 53.11 J/K/mol
121.2 K | 55.16 J/K/mol
126.2 K | 57.26 J/K/mol
131.3 K | 59.2 J/K/mol
136.3 K | 61.11 J/K/mol
141.4 K | 62.97 J/K/mol
146.4 K | 64.73 J/K/mol
151.4 K | 66.44 J/K/mol
156.5 K | 68.1 J/K/mol
161.5 K | 69.61 J/K/mol
166.5 K | 71.14 J/K/mol
171.6 K | 72.74 J/K/mol
176.6 K | 74.33 J/K/mol
181.6 K | 75.68 J/K/mol
186.7 K | 77.05 J/K/mol
191.7 K | 78.48 J/K/mol
196.7 K | 79.89 J/K/mol
201.8 K | 81.31 J/K/mol
206.8 K | 82.59 J/K/mol
211.8 K | 83.86 J/K/mol
216.9 K | 85.21 J/K/mol
221.9 K | 86.36 J/K/mol
226.9 K | 87.35 J/K/mol
231.9 K | 88.39 J/K/mol
237 K | 89.46 J/K/mol
242 K | 90.5 J/K/mol
247 K | 91.49 J/K/mol
252.1 K | 92.36 J/K/mol
257.1 K | 93.28 J/K/mol
262.1 K | 94.21 J/K/mol
267.1 K | 95.29 J/K/mol
272.1 K | 96.19 J/K/mol
277.1 K | 97.31 J/K/mol
282.2 K | 98.39 J/K/mol and 98.37 J/K/mol
287.2 K | 99.41 J/K/mol
287.3 K | 99.33 J/K/mol
292.2 K | 100.36 J/K/mol
292.3 K | 100.2 J/K/mol
297.3 K | 100.95 J/K/mol
302.26 K | 101.79 J/K/mol
302.33 K | 101.79 J/K/mol
302.35 K | 101.81 J/K/mol
307.29 K | 102.41 J/K/mol
307.35 K | 102.45 J/K/mol
307.37 K | 102.44 J/K/mol
312.31 K | 103.05 J/K/mol
312.37 K | 102.95 J/K/mol
312.39 K | 103 J/K/mol
317.33 K | 103.53 J/K/mol
317.4 K | 103.64 J/K/mol
317.42 K | 103.68 J/K/mol
322.35 K | 104.24 J/K/mol
322.44 K | 104.25 J/K/mol
322.45 K | 104.34 J/K/mol
327.36 K | 105.12 J/K/mol
327.45 K | 105.03 J/K/mol
327.48 K | 104.97 J/K/mol
332.38 K | 105.69 J/K/mol
332.46 K | 105.73 J/K/mol
332.48 K | 105.57 J/K/mol
337.4 K | 106 J/K/mol
337.5 K | 106.2 J/K/mol and 106.19 J/K/mol
342.43 K | 106.41 J/K/mol
342.53 K | 106.46 J/K/mol
342.55 K | 106.5 J/K/mol
347.11 K | 107.02 J/K/mol
347.2 K | 106.86 J/K/mol
347.23 K | 106.97 J/K/mol
351.79 K | 107.32 J/K/mol
351.86 K | 107.38 J/K/mol and 107.33 J/K/mol
356.73 K | 107.65 J/K/mol
356.79 K | 107.89 J/K/mol
356.81 K | 107.7 J/K/mol
361.73 K | 108.18 J/K/mol
361.79 K | 108.22 J/K/mol
361.8 K | 108.28 J/K/mol
366.74 K | 108.45 J/K/mol
366.81 K | 108.25 J/K/mol and 108.64 J/K/mol
371.74 K | 108.81 J/K/mol
371.8 K | 108.77 J/K/mol
371.82 K | 108.81 J/K/mol
376.74 K | 109.11 J/K/mol
376.8 K | 109 J/K/mol
376.82 K | 108.98 J/K/mol
381.74 K | 109.41 J/K/mol
381.81 K | 109.29 J/K/mol
